Data reported in patent publication US6352980B1, “Estrenes for inducting hypothalamic effects” (Pherin Pharmaceuticals, Inc., priority 1991, dated 2002).
Entries after “also recorded” stand apart in the source; their conditions may differ.

Columns and labels:
[1] = system: human vomeronasal organ (VNO); test: Local electrical potential of the VNO on localized gaseous stimulation (Example 52); format: in vivo
Procedure: (§1) A non-invasive method has been employed to record local electrical potentials from the human vomeronasal organ (VNO) and from the olfactory epithelium (OE). Localized gaseous stimulation was applied to both nasal structures at different instances using specially designed catheter/electrodes connected to a multichannel drug delivery system.
(§2) The study was performed on ten clinically normal (screened) volunteers—2 males and 8 females, ranging in age from 18 to 85 years. The studies were conducted without general or local anesthetics.
(§3) The catheter/electrodes were designed to deliver a localized stimulus and simultaneously record the response. In the case of VNO recording, the right nasal fosa of the subject was explored using a nasoscope (nasal specula) and the vomeronasal opening was localized close to the intersection of the anterior edge of the vomer and the nasal floor. The catheter/electrode was gently driven through the VNO-opening and the electrode tip placed in the organ's lumen at 1 to 3 mm from the opening. The nasoscope was then removed. In the case of the OE, recording the procedure was similar except the positioning of the catheter/electrode was gently placed deep in the lateral part of the medial nasal duct, reaching the olfactory mucosa.
Localized gaseous stimulation was done through the catheter/electrode. A constant stream of clean, nonodorous, humidified air at room temperature was continuously passed through a channel of the stimulating system. The stimulating ligand substances were diluted in propylene glycol, mixed with the humidified air, and puffed for from 1 to 2 seconds through the catheter/electrode. It is estimated that this administration provides about 25 pg of steroid-ligand to the nasal cavity.
(§4) The response is measured in millivolt-seconds (mV×s).

[2] = system: olfactory epithelium (OE); test: Local electrical potential of the olfactory epithelium on localized gaseous stimulation (Example 52); format: in vivo, human; conditions: both males and females; compared to clove; FIG. 2C
Procedure: as §1, §2, §3
Localized gaseous stimulation was done through the catheter/electrode. […]
as §4

VNO [3] = test: Electro-vomeronasogram (EVG) (Example 57); format: in vivo, human; conditions: male subjects (ages 20 to 38); 100 fmoles; 1 second pulses; FIG. 6A
Procedure: The following electrophysiological studies were performed in 60 clinically normal human volunteers of both sexes (30 male and 30 female) whose ages ranged from 20 to 45 years. No anesthetics were used, and female subjects were excluded if pregnant.
The stimulation and recording system consists of a “multifunctional miniprobe” described elsewhere (Monti-Bloch, L. and Grosser, B. l. (1991) “Effect of putative pheromones on the electrical activity of the human vomeronasal organ and olfactory epithelium,” J. Steroid Biochem. Molec. Biol. 39:573-582.). The recording electrode is a 0.3 mm silver ball attached to a small (0.1 mm) silver wire insulated with Teflon© the surface of the electrode is first treated to produce a silver chloride interface, and is then covered with gelatin It is positioned within a small caliber Teflon© catheter (dia=5 mm) such that the tip of the electrode protrudes approximately 2 mm. The Teflon© catheter is 10 cm in length and constitutes the terminal extension for a multichannel delivery system which delivers a continuous air stream carrying discreet pulses of chemosensory stimuli. The air stream first passes into a small chamber and is bubbled through a solution containing either a vomeropherin or an olfactant in a diluent or the diluent alone. A solenoid is used to rapidly redirect the air stream from the chamber to a route which bypasses the chamber. This creates a discreet pulse of stimulant in the air stream. A second, outer Teflon® tube with a diameter of 2 mm surrounds the catheter-electrode assemblage, and its central end is connected to an aspirator that provides continuous suction of 3 ml/s. This concentric arrangement of the outer suction tube allows the emitted chemosensory stimuli to be localized to an area we call a “minifield” (approx. dia=1 mm), and it avoids diffusion of substances either to the area outside the intended stimulation site or into the respiratory system. The entire stimulating and recording assemblage may be positioned either on the neurosensory epithelium within the VNO, or on the surface of the olfactory or respiratory epithelium.
Electro-vomeronasogram (EVG): Recordings are carried out in a quiet room with the subject supine; the multi-functional miniprobe is initially stabilized within the nasal cavity using a nasal retractor placed in the vestibule. Reference and ground electrodes consist of silver discs (8 mm), both of which are positioned on the glabella.
The entrance to the VNO, or vomeronasal pit, is identified by first dilating the nasal aperture and vestibule. A 6× magnifying binocular loupe with halogen illumination is then used to introduce the tip of the Teflon® catheter and recording electrode assemblage into the VNO opening where it is stabilized at an approximate depth of 1 mm within the vomeronasal passage. Optimal placement of the recording electrode is signaled after testing for an adequate depolarization in response to a test substance.
Electrical signals from the recording electrode are fed to a DC amplifier after which they are digitized, computer monitored, and stored. The peak-to-peak amplitude of the signals is measured, and the area under the depolarization wave is integrated, while continuously monitoring the signal both on the computer screen and on a digital oscilloscope. Artifacts produced by respiratory movements are deleted by training the subjects to practice mouth breathing with velopharyngeal closure.
Chemosensory Stimulants: Olfactory test substances are cineole, and 1-carvone; vomeropherins are A, B, C, E and F. (Vomeropherins were supplied by Pherin Corporation, Menlo Park, Calif.), Samples of vomeropherins In. concentration of 25-800 fmoles are delivered in the continuous air stream for durations from 300 milliseconds to 1 second. Usually, intervals of 3 to 5 minutes separated each series of short test pulses. […]

VNO [4] = test: Electrodermal activity (EDA) on vomeropherin stimulation of the VNO; format: in vivo, human; conditions: male subjects, n=30; p<0.01; FIG. 6C
Procedure: (§5) Cortical evoked activity was induced by VNO stimulation with vomeropherins, and olfactory stimulation with odorants delivered in 300 ms air pulses. It was recorded using standard electroencephalographic (EEG) electrodes placed at positions Cz-A1 and Tz-A1 of the international […] system; the ground electrode was placed on the mastoid process. Electrodermal activity (EDA) was recorded using standard 8 mm silver electrodes in contact with palmar skin of the medial and ring fingers, respeCtively, through a conductive gel interface. Skin temperature (ST) was recorded by a small (1.0 mm) thermistor probe placed in the right ear lobe. Peripheral arterial pulse (PAP) was monitored with a plethysmograph attached to the tip of the index finger. Respiratory frequency (RF) was measured with an adjustable strain gauge placed around the lower thorax. All electrical signals were DC amplified, digitized (MP-100, Biopac Systems) and continuously monitored utilizing a computer.
(§6) Statistical Analysis: EVGs or EOGS, peak-to-peak changes and frequency changes of other parameters were measured and statistically analyzed. The significance of the results was determined by either using paired t-tests or analysis of variance (ANOVA).
Reflex Effects of Vomeropherins: Studies were conducted to determine the central nervous system (CNS) reflex responses to vomeropherin stimulation of the VNO. The sexually dimorphic local responses induced by vomeropherins (FIGS. 6A and B) were mirrored in the autonomic response of male & female subjects. […] In female subjects.

VNO [5] = test: Skin temperature (ST) on vomeropherin stimulation of the VNO; format: in vivo, human; conditions: 30 male subjects; p<0.01; FIG. 6G
Procedure: as §5, §6
In female subjects vomeropherins produced changes in EDA and ST with a greater standard deviation than in males.

VNO [6] = test: Cortical activity (EEG) on VNO stimulation with vomeropherins; format: in vivo, human; conditions: males; 200 fmoles; air pulses 300 ms to 1 sec; FIG. 6E
Procedure: as §5, §6
[…] […] Synchronization of the EEG was sustained for 1.5 to 2.7 minutes after application of a single pulse of active substance.

VNO [7] = test: Comparison of change in receptor potential induced by two Estrene steroids (Example 55); format: in vivo, human; conditions: 60 picograms; a subject; FIG. 5
Procedure: 60 picograms of each steroid and of a propylene glycol control were administered to a subject as described in Example 21.

VNO [8] = conditions: 2% lidocaine applied to the respiratory epithelium of the nasal septum; cited from earlier work

| SMILES | VNO response, males versus females (sexual dimorphism) ([1]; FIG. 2B) | VNO response ([1]; male subjects, about 25 pg to the nasal cavity, response measured in mV×s, FIG. 2A) | OE response [2] | EVG average response (mean) (VNO [3]) | skin resistance (electrodermal activity, EDA) (VNO [4]) | skin temperature (ST) (VNO [5]) | alpha cortical activity (VNO [6]) | change in receptor potential (VNO [7]) | effect of local anesthetic on the EVG (VNO [8]) |
| --- | --- | --- | --- | --- | --- | --- | --- | --- | --- |
| C[C@@]12C=CC[C@H]1[C@@H]1CCc3cc(O)ccc3[C@H]1CC2 [C, 1,3,5(10),16-Estratetraen-3-ol] | approximately four times as strong in males as it is in females | significantly stronger VNO response in males than do the other compounds tested | low compared to a strong odorant such as clove | 6.4 mV | decreased skin resistance | significant increase in skin temperature | significantly increased alpha cortical activity | – | – |
| COc1ccc2c(c1)CC[C@@H]1[C@@H]2CC[C@]2(C)C=CC[C@@H]12 [D, 3-Methoxy-Estra-1,3,5(10)16-tetraene] | – | – | – | 15.1 mV | – | significant temperature decrease | significantly increased alpha cortical activity; also recorded: strongest effect | greater change in receptor potential than did 1,3,5(10),16-Estratetraen-3-yl acetate | – |
| CCN(CC)CC(=O)Nc1c(C)cccc1C [lidocaine] | – | – | – | – | – | – | – | – | neither blocks nor diminishes the EVG |
